# Results from patent US20080171350A1, “Neural Cell Differentiation Method From Es Cells” (NOVARTIS FORSCHUNGSSTIFTUNG, ZWEIGNIEDERLASSUNG FRIEDRICH …, priority 2004, published 2008).
# Tested on: ES cells-derived neurons
# Assay: Whole-cell patch-clamp recordings on ES cells-derived neurons
# Assay type: cell-based, mouse
# Settings: cells in culture for 10 and up to 22 days
structure (smiles),measurement,value
NS(=O)(=O)c1cccc2c1c([N+](=O)[O-])cc1nc(O)c(O)nc12 [NBQX],block of spontaneous synaptic currents (SSCs),blocking of synaptic currents
